Laboratory results: patent US6511967B1, “Use of an internalizing transferrin receptor to image transgene expression” (The General Hospital Corporation, priority 1999, dated 2003)

Tests used:
[1] = tested on: ETR+ and ETR− tumors; experiment: Biodistribution of labeled reporter complex in excised ETR+ and ETR− tumors; format: in vivo, nude mice
Protocol: A similar 4-fold difference was also observed when In labeled Tf was injected into these animals. The same assay can be used to analyze the biodistribution of other new reporter complexes.
First, rat 9L gliosarcoma cells (Brain Tumor Research Center, San Francisco, Calif.) were grown in Dulbecco's modified Eagle's medium (DMEM, Cellgro, Mediatech, Washington, D.C.) containing 10% fetal bovine serum (FBS, Cellgro).
Then, ETR− and ETR+ tumors were grown in nude mice by injecting […] cells of either cell line into the left and right flanks of animals (n=12). Each animal was implanted with both tumors in each flank so that it could serve as its own control. Animals were used for histology, MR, and/or biodistribution studies 10 to 14 days after tumor inoculation. The growth characteristics of the tumors were similar and by day 12 all animals had developed tumors 200-400 mg in size.

[2] = tested on: Gli36#6; experiment: In vitro MR imaging of Gli36#6 cells infected with PETZ amplicon and incubated with Tf-MION (FIG. 10A); format: cell-based; conditions: 10 μg Tf-MION
Protocol: In this figure, concentration labels refer to the amount of iron molecules added to the sample. […] Following infection, the cells were allowed to recover and were washed, pelleted, and imaged at room temperature as follows: SE (Spin Echo): TR 3000 ms, multiecho with TE 25, 50, 75, 100ms. Slice thickness 1.9 mm, field of view 8 cm, matrix 256×256, 2 NEX, scan time 26:12 minutes.

[3] = tested on: ETR+ and ETR− tumors; experiment: In vivo MR imaging of mice with ETR+ and ETR− tumors after intravenous Tf-MION; design: species or system nude mice; conditions: then tumoral signal intensity returned to baseline
Protocol: MR imaging was performed in live animals using a 1.5 T superconducting magnet (Signa 5.0; GE Medical Systems, Milwaukee, Wis.) using a 5-inch surface coil. […] Slice thickness was 3 mm. The field of view (FOV) was 10 cm^2, using a 256×256 imaging matrix and 2-4 acquisition averages. Signal intensity (SI) measurements were obtained in regions of interest (ROI) from tumor and background. To display MION-Tf induced changes, R2 maps of tumors calculated from spin echo images were superimposed on anatomic maps (T1 weighted images). Semiquantitation was done by calibrating R2 maps to known concentrations of radiolabeled superparagmagnetic probes.

[4] = tested on: Gli36EGFR cells; experiment: In vitro MR imaging of Gli36EGFR cells infected with PETZ amplicon and labeled with Tf-SPDP-CLIO (FIG. 10B); format: cell-based; conditions: MOI 20 or 4; 2 hours at 37° C.; especially at MOI of 20
Protocol: In another similar experiment, in vitro MR imaging was used to analyze viral transfer of the transferrin receptor and labeling with Tf-SPDP-CLIO. Gli36EGFR cells were uninfected or infected with an HSV-based amplicon (PETZ) driving expression of an altered form of the transferrin receptor (Multiplicity of Infection (MOI) of 20 or 4). After 24 hours, the cells were incubated with the indicated concentrations of Tf-SPDP-CLIO for 2 hours at 37° C. Following incubation, cells were harvested, washed, and pelleted for imaging at room temperature. As a control for non-specific uptake of unconjugated CLIO, infected and uninfected cells were also incubated in a similar fashion with 50 μg of CLIO alone. Concentration numbers along the top of the figure refer to the amount of iron added to the sample in the form of Tf-SPDP-CLIO. The ratio of Tf conjugated to CLIO for Tf-SPDP-CLIO was 4:1. […] The MR imaging conditions were as follows: SE (Spin Echo); TR 3000 ms, multiecho with TE 25, 50, 75, 100 ms. Slice thickness 1.9 mm, field of view 8 cm, matrix 256×256, 2 NEX, scan time 26:12 minutes.

[5] = tested on: Gli36EGFR tumors infected with PETZ; experiment: In vivo MR imaging of gene transfer in bilateral Gli36EGFR brain tumors (FIG. 9); design: species or system nude mice; conditions: 24 hours after tail-vein injection, 1 mg/kg; 3-D gradient echo
Source text: In another example of imaging of in vivo gene transfer, Gli36EGFR cells were implanted into nude mice 8 days prior to imaging to generate bilateral frontal tumors. On day 6 after implantation, tumors on the right were infected with the HSV-based amplicon PETZ (FIG. 8), which drives expression of an altered form of the TfR. Forty-eight hours after virus administration animals were imaged without contrast agent (T1-weighted pre-contrast scan; FIG. 9A) and then injected with Tf-SPDP-CLIO.
All contrast agents were injected by tail-vein administration (1 mg/kg Tf-SPDP-CLIO). Scans: (9A) T1 SE 300/16, FOV 8 cm, 256×256, 1.9 thk/0.2 spc; (9B) T1 SE [Omniscan], and (9C) T2 3D GR 38/20/5°, FOV 10 cm, 256×256, 0.5 thk/0.0 spc. [Tf-SPDP-CLIO.

[6] = tested on: Gli36EGFR cells
Protocol: Gli36EGFR cells were plated at approximately 10% confluency. Cells were infected the next day (MOI=5) with either one of three amplicons: EZ-TFR (FIG. 12), which was a control having a transferrin receptor gene, but lacking a p450 gene; EZ-p450 (FIG. 11), which was a second control with a p450 gene but no transferrin receptor gene; or PETZ (FIG. 8), which includes both the p450 and transferrin receptor genes. Following a 24 hour incubation with the viral amplicons, cyclophosphamide (CPA) was added in varying concentrations as indicated in the graph of FIG. 13. CPA is a chemotherapeutic compound that is metabolized by the expression product of the p450 gene (cyp2B1 in the rat). Cleavage of CPA yields an active metabolite, which is toxic to the cancer cells. Cell number was measured 72 hours later using a Coulter Counter. The data are presented in the graph in FIG. 13 as a percentage of control, where control cells are virally infected cells in the absence of CPA.

[7] = tested on: 9L3.9 cells; experiment: In vitro MR imaging of 9L3.9 cell pellets incubated with reporter complexes (FIG. 7); format: cell-based, rat; conditions: spin echo MR imaging
Protocol: Concentration labels in FIG. 7 refer to the amount of iron (reporter complex) added to the sample.
Incubations of the reporter complexes with the cells were carried out at 37° C. The cells were washed and pelleted, and pellets were imaged in microfuge test tubes at room temperature as follows: SE (Spin Echo): TR 3000 ms, multi-echo with TE 25, 50, 75, 100 ms. Slice thickness was 1.9 mm, field of view 8 cm, matrix 256×256, 2 NEX, scan time 26:12 minutes. As shown at the top row in the figure, the Tf-SPDP-CLIO contrast agent provided a change in measured signal at far lower concentrations of the reporter complex.

In labeled Tf: transferrin labeled with In (radioisotope) [reference compound]
difference in tumor accumulation, ETR+ vs ETR− tumors ([1]; ETR+ vs ETR− tumors): ~4 fold

Tf-MION: human holo-transferrin covalently conjugated to dextran coated monocrystalline iron oxide nanoparticles by the periodate method
change of MR signal of cell pellet due to TfR expression after PETZ infection [2]: dramatically altered the MR signal
mean accumulation in ETR+ tumors ([1]; 24 hours after IV administration): 3.2 % ID/g
mean accumulation in ETR− tumors ([1]; 24 hours after IV administration, same animal): 0.8 % ID/g
persistence of MR signal intensity differences of tumors [3]: approximately 7 days

Tf-SPDP-CLIO: holo-Tf conjugated to CLIO using the crosslinking agent N-succinimidyl 3-(2-pyridyldithio) propionate (SPDP)
change in MRI following infection with amplicons expressing the altered transferrin receptor [4]: dramatic change in MRI at lower concentrations of iron
appearance of PETZ-infected tumor in MR image [5]: dark mass

O=P1(N(CCCl)CCCl)NCCCO1 (stereo not drawn) [CPA, cyclophosphamide]
cells alive, percent of control, no amplicon ([6]; 10^3 μM CPA, 72 hours): about 80%
cells alive, percent of control, EZ-TFR amplicon ([6]; 10^3 μM CPA, 72 hours, MOI=5): about 80%
cells alive, percent of control, PETZ amplicon ([6]; 10^3 μM CPA, 72 hours, MOI=5): less than 10%
CPA concentration from which cell killing is significantly increased ([6]; PETZ and EZ-p450 amplicons): 10^1 μM

Tf-CLIO: holo-Tf conjugated to cross-linked iron oxide nanoparticles (CLIO) using the periodate method
contrast compared with the other reporter complexes [7]: better than the Tf-MION, but not as good as the Tf-SPDP-CLIO
